Measurements as given in patent publication US10155727B2, “Pyrazoles” (Janssen Pharmaceuticals, Inc., priority 2014, dated 2018).
Where a name gives a salt, the structure may show the parent alone. Read-outs that look alike come from different tables or passages of the source.

Columns and labels:
[1] = target: rat NR1/NR2B receptor (Rattus norvegicus (Rat), UniProt P35439+Q00960); assay: NR2B binding assay: inhibition of specific [3H]-Ifenprodil binding to the rat NR1/NR2B receptor; conditions: for inhibition at 1 µM: read-out: % INH @ 1 μM; for inhibition at 10 µM: 10 μM test compound, read-out: % INH @ 10 μM
Sequence of rat NR1/NR2B receptor (Q00960 27-1482, other chains not shown): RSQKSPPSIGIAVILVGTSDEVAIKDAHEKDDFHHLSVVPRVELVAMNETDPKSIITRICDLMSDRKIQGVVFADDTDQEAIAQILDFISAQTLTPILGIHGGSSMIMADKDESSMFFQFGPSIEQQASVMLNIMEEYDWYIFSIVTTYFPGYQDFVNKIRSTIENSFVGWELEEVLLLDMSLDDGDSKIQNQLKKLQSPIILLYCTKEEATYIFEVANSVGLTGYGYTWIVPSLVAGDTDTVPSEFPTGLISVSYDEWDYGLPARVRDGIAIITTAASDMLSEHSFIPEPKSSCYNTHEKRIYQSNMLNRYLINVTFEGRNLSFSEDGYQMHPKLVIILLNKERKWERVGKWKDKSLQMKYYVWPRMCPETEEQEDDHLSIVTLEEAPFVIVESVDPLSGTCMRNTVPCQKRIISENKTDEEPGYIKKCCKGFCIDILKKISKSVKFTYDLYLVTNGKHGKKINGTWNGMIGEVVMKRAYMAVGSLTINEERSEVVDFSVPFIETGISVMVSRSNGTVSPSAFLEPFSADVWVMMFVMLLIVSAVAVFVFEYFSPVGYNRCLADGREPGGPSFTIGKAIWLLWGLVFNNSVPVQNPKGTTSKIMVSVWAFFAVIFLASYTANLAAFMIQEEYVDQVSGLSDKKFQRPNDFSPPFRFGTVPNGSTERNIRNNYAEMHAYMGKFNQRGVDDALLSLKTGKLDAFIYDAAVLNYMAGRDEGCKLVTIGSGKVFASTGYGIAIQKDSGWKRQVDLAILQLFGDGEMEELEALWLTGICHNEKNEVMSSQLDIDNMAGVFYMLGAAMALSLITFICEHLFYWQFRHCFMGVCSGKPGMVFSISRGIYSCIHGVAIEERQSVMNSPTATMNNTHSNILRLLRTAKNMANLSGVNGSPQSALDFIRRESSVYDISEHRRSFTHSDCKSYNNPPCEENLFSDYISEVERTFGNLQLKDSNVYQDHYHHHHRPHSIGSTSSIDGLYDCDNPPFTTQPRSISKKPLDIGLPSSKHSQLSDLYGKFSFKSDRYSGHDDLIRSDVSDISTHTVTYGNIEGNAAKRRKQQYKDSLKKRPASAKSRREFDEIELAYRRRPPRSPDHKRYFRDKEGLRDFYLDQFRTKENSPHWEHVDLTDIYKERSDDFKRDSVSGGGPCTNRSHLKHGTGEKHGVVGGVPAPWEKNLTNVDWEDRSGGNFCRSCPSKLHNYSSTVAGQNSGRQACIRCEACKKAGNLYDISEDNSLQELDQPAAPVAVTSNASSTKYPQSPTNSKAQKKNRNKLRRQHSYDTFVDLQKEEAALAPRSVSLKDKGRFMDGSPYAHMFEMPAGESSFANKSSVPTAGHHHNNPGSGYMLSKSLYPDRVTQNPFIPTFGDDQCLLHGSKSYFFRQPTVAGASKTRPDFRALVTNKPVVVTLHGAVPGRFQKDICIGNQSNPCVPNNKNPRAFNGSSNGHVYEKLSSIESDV
Description: Biological Assays Inhibition of Specific Binding to the Rat NR1/NR2B Receptor
Male Wistar rats (180 to 200 g) were killed by suffocation in a CO2 chamber for two minutes. Whole brains without cerebellum were removed and dissected on ice, placed into closed vials and stored at −70° C.
Membrane fractions were prepared and tested using standard techniques. At the time of the assay, 1 g of the brains was placed into 25 ml of 50 mM Tris/10 mM EDTA buffer, pH 7.1, (25 vol. per g of original tissue) and homogenized for 30 sec at 20000 rpm with an Ultraturrax T25 (Jahnke & Kunkel, IKA-Labortechnik, Staufen, Germany).
The supernatant was discarded and the pellet was homogenized on ice for 30 sec at 20000 rpm with an Ultraturrax and again centrifuged at 48000 g for 30 minutes at 4° C. The resultant pellet was resuspended in 25 ml of 50 mM Tris/10 mM EDTA buffer, homogenized for 30 sec with an Ultraturrax, aliquoted, frozen at −70° C. and stored until use.
After thawing on the day of the assay, a 5 ml membrane aliquot was centrifuged at 48000 g for 30 min at 4° C. The pellet was resuspended in 5 ml of 5 mM Tris/1 mM EDTA buffer, pH 7.4, homogenized for 30 sec at 20000 rpm with an Ultraturrax and centrifuged at 48000 g for 30 min at 4° C. This was repeated twice. The final pellet was homogenized in 5 ml of 5 mM Tris/1 mM EDTA buffer at 4° C. with an Ultraturrax and used for the Ifenprodil-binding assay as described in the following.
Nonspecific binding was estimated in the presence of […] CP101.606. The samples were incubated for 60 min. at 4° C.
The incubation was terminated by filtration of the membrane preparations using Filtermat B (Pharmacia, Uppsala Sweden) and a Micro Cell Harvester (Skatron, Lier, Norway). The Filtermat B had been presoaked with 1% polyethylene imine and carefully washed with 50 mM Tris/HCl-buffer pH 7.7 after the filtration to separate free and bound radioactivity.
The optimal amount of membrane preparation in the assay was determined and optimized for each membrane preparation separately before the test.
For pipetting of the incubation mixture the robot Biomek2000 (Fa. Beckman) was used.
For determination of IC50 values the Hill-plot, 2-parameter-model was used.

[2] = target: hERG receptor (Homo sapiens (Human), UniProt Q12809); assay: HERGBD: inhibition of specific [3H]-Dofetilide binding to the hERG receptor
Sequence of hERG receptor (Q12809 whole entry): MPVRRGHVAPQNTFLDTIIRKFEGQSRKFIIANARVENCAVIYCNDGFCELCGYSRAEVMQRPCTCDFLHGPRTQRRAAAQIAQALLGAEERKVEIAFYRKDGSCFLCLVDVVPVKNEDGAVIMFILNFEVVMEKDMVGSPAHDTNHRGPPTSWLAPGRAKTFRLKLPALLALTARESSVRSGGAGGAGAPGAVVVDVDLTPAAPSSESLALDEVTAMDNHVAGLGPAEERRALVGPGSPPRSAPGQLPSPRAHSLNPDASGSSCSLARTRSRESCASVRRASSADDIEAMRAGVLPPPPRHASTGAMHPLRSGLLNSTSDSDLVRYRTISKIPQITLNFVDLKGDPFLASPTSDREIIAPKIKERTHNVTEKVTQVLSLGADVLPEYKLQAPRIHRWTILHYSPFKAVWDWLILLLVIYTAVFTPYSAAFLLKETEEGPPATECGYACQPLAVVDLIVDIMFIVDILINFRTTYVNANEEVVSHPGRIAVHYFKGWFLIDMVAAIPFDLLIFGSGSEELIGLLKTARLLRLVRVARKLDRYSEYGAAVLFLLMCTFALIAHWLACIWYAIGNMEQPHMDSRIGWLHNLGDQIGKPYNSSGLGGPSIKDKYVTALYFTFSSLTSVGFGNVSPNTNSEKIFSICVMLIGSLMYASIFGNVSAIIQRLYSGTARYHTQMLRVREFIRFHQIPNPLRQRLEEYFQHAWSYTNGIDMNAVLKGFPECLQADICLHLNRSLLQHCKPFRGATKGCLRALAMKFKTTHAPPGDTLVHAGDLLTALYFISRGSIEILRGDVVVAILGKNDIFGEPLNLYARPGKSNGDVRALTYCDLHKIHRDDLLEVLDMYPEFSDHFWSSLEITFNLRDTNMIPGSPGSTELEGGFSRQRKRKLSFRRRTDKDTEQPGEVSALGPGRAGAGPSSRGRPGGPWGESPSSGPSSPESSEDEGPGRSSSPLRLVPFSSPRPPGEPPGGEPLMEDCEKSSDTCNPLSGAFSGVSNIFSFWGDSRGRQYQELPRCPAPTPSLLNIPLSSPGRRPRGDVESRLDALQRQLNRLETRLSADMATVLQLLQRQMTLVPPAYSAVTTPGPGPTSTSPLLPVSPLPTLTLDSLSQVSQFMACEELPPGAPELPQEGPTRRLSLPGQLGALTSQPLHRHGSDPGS
Description: Inhibition of Specific Binding to the hERG—Receptor (HERGBD)
A HEK cell line with stable transfected human ERG receptor was used for the assay. The cells were grown adherently and maintained in DULBECCOS' MEM medium with 10% FBS, 1% non-essential amino acids, 1% Penicillin/Streptomycin and 400 μg/ml G418 (Calbiochem).
For binding assays and membrane preparations the cell culture medium was removed, cells were washed with PBS. Crude membranes for radioligand binding experiments were prepared by scraping the cells off the dishes in ice cold 20 mM HEPES/0.1 mM KCl/pH 7.2. The cell suspension was homogenized on ice (Ultra turrax, 3×20 sec.) and the homogenate was spun for 10 min (1° C., 1000 g, OPTIMA, SW28, 2800 U/min). The supernatant was than centrifuged for 40 min at 100000 g (1° C., OPTIMA, SW28, 23000 U/min). The membrane pellet was re-suspended in 20 mM HEPES/0.1 mM KCl pH 7.2, frozen and stored at −80° C.
After thawing on the day of the assay, the membrane suspension was diluted further with 20 mM HEPES/0.1 mM KCl/pH 7.2.
The incubation mixture of 200 μl contained 1.5 nmol/l 3H-Dofetilide, optimized amount of membrane preparation, 20 mM HEPES/0.1 mM KCl/(pH 7.2) and inhibitor in 1% DMSO. Nonspecific binding was estimated in the presence of […] Dofetilide. The samples were incubated for 90 min. at RT.
Binding was terminated by filtration of the incubated membrane preparations using Filtermat B (Pharmacia, Uppsala Sweden) and a Micro Cell Harvester (Skatron, Lier, Norway). The Filtermat B had been presoaked with 1% polyethylen imine and carefully washed with 0.05 M Tris/HCl-buffer pH=7.7 after the filtration to separate free and bound radioactivity. The filters were counted in a scintillation counter (Betaplate 1205, Berthold, Wildbad, Germany) in order to determine the specific binding of [^3H]-Dofetilide.
The optimal amount of membrane preparation in the assay was determined and optimized for each membrane preparation separately in front of using the membranes in compound testing.
For pipetting of the incubation mixture we routinely use the robot Biomek2000 (Fa. Beckman).

[3] = [3H]-Ifenprodil binding, rat brain membranes
[4] = [3H]-Dofetilide binding, membranes of HEK cells with human ERG receptor, read-out: IC50
[5] = 1 μM test compound, [3H]-Ifenprodil binding, rat brain membranes

| Compound | IC50 [1, 3] | IC50 [2] | IC50 [2, 4] | inhibition at 1 µM [1, 5] | inhibition at 10 µM [1, 3] | inhibition at 1 µM [1] |
| --- | --- | --- | --- | --- | --- | --- |
| Cn1cc(Cn2cc(-c3ccc(F)c(C(C)(F)F)c3)cn2)cn1 [Example 45, 4-[3-(1,1-difluoroethyl)-4-fluoro-phenyl]-1-[(1-methylpyrazol-4-yl)methyl]pyrazole Succinate] | 0.261 µM | 67.8 µM | – | – | – | – |
| Fc1cc(-c2cnn(Cc3cc[nH]n3)c2)cc(C(F)F)c1 [Example 47, 4-[3-(difluoromethyl)-5-fluoro-phenyl]-1-(1H-pyrazol-3-ylmethyl) pyrazole Succinate] | 0.203 µM | > 100 µM | – | – | – | – |
| Cc1cc(Cn2cc(-c3cccc(C(F)(F)F)c3)cn2)n(C)n1 [Example 48, 1,3-dimethyl-5-[[4-[3-(trifluoromethyl)phenyl]pyrazol-1-yl]methyl]pyrazole] | 1.97 µM | 37.4 µM | – | – | – | – |
| Cc1cc(-c2cnn(Cc3ccn(C)n3)c2)ccc1F [Example 55, 3-[[4-(4-fluoro-3-methyl-phenyl)pyrazol-1-yl]methyl]-1-methyl-pyrazole Succinate] | 0.871 µM | 21.1 µM | – | – | – | – |
| Cc1cc(-c2cnn(Cc3cc[nH]n3)c2)ccc1F [Example 56, 4-(4-fluoro-3-methyl-phenyl)-1-(1H-pyrazol-3-ylmethyl)pyrazole] | 0.0787 µM | 93.8 µM | – | – | – | – |
| Cc1cc(-c2cnn(Cc3ccn(C)n3)c2)ccc1Cl [Example 58, 3-[[4-(4-chloro-3-methyl-phenyl)pyrazol-1-yl]methyl]-1-methyl-pyrazole Succinate] | 0.668 µM | – | 12.6 µM | – | – | – |
| Cc1cc(Cn2cc(-c3ccc(Cl)c(F)c3)cn2)n(C)n1 [Example 60, 5-[[4-(4-chloro-3-fluoro-phenyl)pyrazol-1-yl]methyl]-1,3-dimethyl-pyrazole] | 2.17 µM | – | 31.6 µM | – | – | – |
| Cn1ccc(Cn2cc(-c3ccc(F)c(Cl)c3)cn2)n1 [Example 61, 3-[[4-(3-chloro-4-fluoro-phenyl)pyrazol-1-yl]methyl]-1-methyl-pyrazole Succinate] | 1.38 µM | 24.7 µM | – | – | – | – |
| Cc1cc(Cn2cc(-c3ccc(F)c(Cl)c3)cn2)n(C)n1 [Example 62, 5-[[4-(3-chloro-4-fluoro-phenyl)pyrazol-1-yl]methyl]-1,3-dimethyl-pyrazole] | 0.857 µM | 41.9 µM | – | – | – | – |
| Cn1ccc(Cn2cc(-c3ccc(Cl)c(Cl)c3)cn2)n1 [Example 63, 3-[[4-(3,4-dichlorophenyl)pyrazol-1-yl]methyl]-1-methyl-pyrazole] | 0.612 µM | – | 10.8 µM | – | – | – |
| Cc1cc(Cn2cc(-c3ccc(Cl)c(Cl)c3)cn2)n(C)n1 [Example 64, 5-[[4-(3,4-dichlorophenyl)pyrazol-1-yl]methyl]-1,3-dimethyl-pyrazole] | 1.1 µM | 14.4 µM | – | – | – | – |
| Cn1ccc(Cn2cc(-c3ccc(Cl)cc3Cl)cn2)n1 [Example 66, 3-[[4-(2,4-dichlorophenyl)pyrazol-1-yl]methyl]-1-methyl-pyrazole Succinate] | 5.21 µM | 8.86 µM | – | – | – | – |
| COc1cc(F)ccc1-c1cnn(Cc2ccn(C)n2)c1 [Example 67, 3-[[4-(4-fluoro-2-methoxy-phenyl)pyrazol-1-yl]methyl]-1-methyl-pyrazole Succinate] | – | – | 63.3 µM | 15.1% | 16% | – |
| COc1cc(F)ccc1-c1cnn(Cc2cc(C)nn2C)c1 [Example 68, 5-[[4-(4-fluoro-2-methoxy-phenyl)pyrazol-1-yl]methyl]-1,3-dimethyl-pyrazole Succinate] | – | – | 93.6 µM | – | 26.3% | 8.7% |
| c1cc(-c2cnn(Cc3cc[nH]n3)c2)cc(C2CC2)c1 [Example 69, 4-(3-cyclopropylphenyl)-1-(1H-pyrazol-3-ylmethyl)pyrazole Succinate] | 0.831 µM | > 100 µM | – | – | – | – |
| CS(=O)(=O)c1cccc(-c2cnn(Cc3cc[nH]n3)c2)c1 [Example 70, 4-(3-methylsulfonylphenyl)-1-(1H-pyrazol-3-ylmethyl)pyrazole Succinate] | 2.69 µM | > 100 µM | – | – | – | – |
| FS(F)(F)(F)(F)c1cccc(-c2cnn(Cc3cc[nH]n3)c2)c1 [Example 72, 1-((1H-pyrazol-3-yl)methyl)-4-(3-(pentafluoro-16-sulfanyl)phenyl)-1H-pyrazole Succinate] | 0.0951 µM | 44.7 µM | – | – | – | – |
| Cc1n[nH]c(C)c1CCn1cc(-c2ccc(Cl)cc2)cn1 [Example 73, 4-[2-[4-(4-chlorophenyl)pyrazol-1-yl]ethyl]-3,5-dimethyl-1H-pyrazole] | 1.16 µM | 98 µM | – | – | – | – |
| Cn1nccc1Cn1cc(-c2ccc(Cl)cc2)cn1 [Example 76, 4-(4-Chlorophenyl)-1-[(2-methylpyrazol-3-yl)methyl]pyrazole] | 7.35 µM | 120 µM | – | – | – | – |
| Clc1ccc(-c2cnn(Cc3cc[nH]n3)c2)cc1 [Example 77, 4-(4-Chlorophenyl)-1-(1H-pyrazol-3-ylmethyl)pyrazole] | 1.04 µM | 16.9 µM | – | – | – | – |
| Cn1cc(Cn2cc(-c3ccc(Cl)cc3)cn2)cn1 [Example 78, 4-(4-Chlorophenyl)-1-[(1-methylpyrazol-4-yl)methyl]pyrazole] | 8.28 µM | > 100 µM | – | – | – | – |
| Cn1nccc1Cn1cc(-c2ccccc2)cn1 [Example 87, 1-Methyl-5-[(4-phenylpyrazol-1-yl)methyl]pyrazole; succinic acid] | – | – | > 100 µM | -3.3% | 28.8% | – |
| Cc1n[nH]c(C)c1Cn1cc(-c2ccc(F)c(C(F)F)c2)cn1 [Example 89, 4-[[4-(3-difluoromethyl-4-fluoro-phenyl)pyrazol-1-yl]methyl]-3,5-dimethyl-1H-pyrazole] | 0.736 µM | 88.2 µM | – | – | – | – |
| Cc1n[nH]c(C)c1Cn1cc(-c2ccc(F)c(C(C)(F)F)c2)cn1 [Example 90] | 0.422 µM | 84 µM | – | – | – | – |
| CC(F)(F)c1cccc(-c2cnn(Cc3cc[nH]n3)c2)c1 [Example 93, 3-[[4-(3-(1,1-difluoroethyl)-phenyl)pyrazol-1-yl]methyl]-1H-pyrazole Maleate] | 0.0252 µM | – | 129 µM | – | – | – |
| FC(F)Oc1cccc(-c2cnn(Cc3cc[nH]n3)c2)c1 [Example 94, 3-[[4-(3-(difluoromethoxy)-phenyl)pyrazol-1-yl]methyl]-1H-pyrazole Maleate] | 0.279 µM | – | 120 µM | – | – | – |
| CCn1cncc1Cn1cc(-c2ccc(Cl)c(C(F)F)c2)cn1 [Example 95, 4-(4-chloro-3-(difluoromethyl)phenyl)-1-((1-ethyl-1H-imidazol-5-yl)methyl)-1H-pyrazole] | 0.0635 µM | – | 6.36 µM | – | – | – |
| CCn1cncc1Cn1cc(-c2ccc(Cl)cc2)cn1 [Example 98, 4-(4-chlorophenyl)-1-((1-ethyl-1H-imidazol-5-yl)methyl)-1H-pyrazole] | 1.06 µM | 3.55 µM | – | – | – | – |
| Cn1nccc1-n1cc(-c2ccc(Cl)c(Cl)c2)cn1 [Example 100, 4-(3,4-dichlorophenyl)-2′-methyl-2′H-1,3′-bipyrazole] | 3.17 µM | – | 60.3 µM | – | – | – |
